One assay has as its target NSD2 [1-1365] (Homo sapiens (Human), UniProt O96028). As to the kind of experiment: LC-MS/MS-based NSD2 enzymatic assay (SAH production). It is filed as biochemical. Conditions: read-out: NSD2 IC50. The method in brief:
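Full-length NSD2 [1-1365] (8 nM final) with 1 μM SAM and 400 nM mouse-liver nucleosome in Tris pH 8.0 buffer; inhibitor preincubated 20 min with enzyme/SAM before nucleosome addition. Reaction 90 min at room temperature, TFA-quenched; SAH quantified by LC-MS/MS against d4-SAH internal standard and SAH standard curve.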

The subject of assay [1] is cellular H3K36me2 level in thyroid carcinoma cell line CGTH-W-1 (NSD2 E1099K). Kind of assay: H3K36me2 cellular ELISA assay in CGTH-W-1 line. Format: cell-based. The note with it: Homo sapiens, CGTH-W-1, 72 h, read-out: H3K36me2 ELISA in CGTH-W-1. The procedure:
H3K36Me2 Cellular ELISA Assay in CGTH-W-1 Line
An ELISA (enzyme-linked immunosorbent assay) based assay was used to test the ability of candidate compound to reduce cellular H3K36me2 level in thyroid carcinoma cell line CGTH-W-1, carrying NSD2 E1099K gain of function mutation. CGTH-W-1 (DSMZ) cells are maintained in RPM11640 media with 10% FBS and 50 U/ml Penicillin-Streptomycin.
Cells were treated with tested compounds at the desired concentration for 72 hours.
Histone bound plates were washed and blocked with 5% BSA. […] The abundance of H3K36me2 and total H3 was measured by Chemiluminesce on a plate reader. Cell viability was monitored on a parallel seeded plate with CellTiter-Glo reagent (Promega #G7573).
(ELISA stands for enzyme-linked immunosorbent assay.)

For assay [2], the system named is cellular H3K36me2 level in multiple myeloma cell line KMS11 (t(4;14)+). Kind of assay: H3K36me2 cellular ELISA assay in KMS11-Par line. It is filed as cell-based. Conditions: Homo sapiens, KMS-11, ELISA, read-out: H3K36me2 ELISA in KMS11-Par. The method in brief: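 KMS11 cells were seeded a day ahead at 1,250 per well in Opti-MEM with B-27/N2, then treated with compound for 72 h. Histones were acid-extracted with 0.4M HCl, and H3K36me2 and total H3 were read by chemiluminescent ELISA. Viability was checked with CellTiter-Glo on a parallel plate in maintenance media.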

The mark [3] stands for this setting: NSD2 biochemical activity, class symbols.
[4] abbreviates: KMS11-Par line (t(4;14)+), 72 hours treatment.

Where two headings read alike, the source gives them in different places.

Chain of NSD2 [1-1365] (O96028 whole entry): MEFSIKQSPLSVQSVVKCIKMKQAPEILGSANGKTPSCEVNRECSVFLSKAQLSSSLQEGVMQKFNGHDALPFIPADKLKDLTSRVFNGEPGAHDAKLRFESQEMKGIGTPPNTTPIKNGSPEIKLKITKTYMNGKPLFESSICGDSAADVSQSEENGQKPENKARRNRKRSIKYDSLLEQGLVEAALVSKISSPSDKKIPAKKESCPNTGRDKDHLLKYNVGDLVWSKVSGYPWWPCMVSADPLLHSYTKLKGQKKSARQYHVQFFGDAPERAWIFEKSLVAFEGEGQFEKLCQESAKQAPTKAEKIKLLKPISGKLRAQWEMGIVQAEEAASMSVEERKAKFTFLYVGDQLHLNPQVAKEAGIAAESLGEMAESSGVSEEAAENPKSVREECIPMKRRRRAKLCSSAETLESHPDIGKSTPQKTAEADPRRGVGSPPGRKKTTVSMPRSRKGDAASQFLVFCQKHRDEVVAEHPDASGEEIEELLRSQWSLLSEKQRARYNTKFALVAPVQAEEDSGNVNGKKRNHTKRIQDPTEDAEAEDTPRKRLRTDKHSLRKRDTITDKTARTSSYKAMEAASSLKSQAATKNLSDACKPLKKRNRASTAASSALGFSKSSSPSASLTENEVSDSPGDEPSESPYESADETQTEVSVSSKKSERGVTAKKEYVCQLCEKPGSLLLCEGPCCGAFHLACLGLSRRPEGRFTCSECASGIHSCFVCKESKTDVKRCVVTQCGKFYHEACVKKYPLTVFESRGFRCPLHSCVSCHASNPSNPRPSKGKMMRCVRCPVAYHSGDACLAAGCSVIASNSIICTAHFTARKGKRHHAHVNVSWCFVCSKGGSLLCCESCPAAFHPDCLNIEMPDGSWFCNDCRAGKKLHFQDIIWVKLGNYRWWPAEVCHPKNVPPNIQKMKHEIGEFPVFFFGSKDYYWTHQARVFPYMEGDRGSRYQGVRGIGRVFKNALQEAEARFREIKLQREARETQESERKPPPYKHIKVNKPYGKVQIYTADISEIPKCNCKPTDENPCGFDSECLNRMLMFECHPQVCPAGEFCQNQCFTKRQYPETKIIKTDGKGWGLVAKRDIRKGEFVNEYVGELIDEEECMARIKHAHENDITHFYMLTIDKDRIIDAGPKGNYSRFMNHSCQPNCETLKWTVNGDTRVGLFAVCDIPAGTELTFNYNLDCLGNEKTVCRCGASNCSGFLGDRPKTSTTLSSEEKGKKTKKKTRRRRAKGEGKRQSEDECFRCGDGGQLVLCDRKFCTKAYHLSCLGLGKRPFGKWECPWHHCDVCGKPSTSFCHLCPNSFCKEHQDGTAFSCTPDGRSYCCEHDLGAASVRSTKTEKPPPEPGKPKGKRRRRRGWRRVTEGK

With `Nc1ncnc2c1ncn2Cc1cc(-c2ccc(F)c(Cl)c2)ncc1N1CCC[C@](N)([C@H](O)C(F)F)C1` [Example 139, (S)-1-((R)-3-amino-1-(4-((6-amino-9H-purin-9-yl)methyl)-6-(3-chloro-4-fluorophenyl)pyridin-3-yl)piperidin-3-yl)-2,2-difluoroethan-1-ol], the IC50 is 10 to 1000 nM on NSD2 [1-1365] (setting [3]), 669 nM in assay [1] and 2840 nM in assay [2] (setting [4]).
`CNC(=O)[C@@]1(N)CCCN(c2cnc(-c3cccc(F)c3)cc2Cn2cnc3c(N)ncnc32)C1` [Example 78, (R)-3-amino-1-(4-((6-amino-9H-purin-9-yl)methyl)-6-(3-fluorophenyl)pyridin-3-yl)-N-methylpiperidine-3-carboxamide]: the IC50 at NSD2 [1-1365] (setting [3]) is 1 to 10 nM; in assay [1], 12 nM; in assay [2] (setting [4]), 78 nM.
As to `Nc1ncnc2c1ncn2Cc1cc(C2CCCCC2)ncc1N1CCC[C@](N)([C@@H](O)C(F)F)C1` [Example 130, (R)-1-((R)-3-amino-1-(4-((6-amino-9H-purin-9-yl)methyl)-6-cyclohexylpyridin-3-yl)piperidin-3-yl)-2,2-difluoroethan-1-ol], the IC50 at NSD2 [1-1365] (setting [3]) is 1 to 10 nM; in assay [1] it was 321 nM; in assay [2] (setting [4]) it was 3520 nM.
The like results for `CC[C@@H](C)C(=O)[C@@]1(N)CCCN(c2cnc(-c3ccc(F)c(F)c3)cc2Cn2cnc3c(N)ncnc32)C1` [Example 102, (R)-1-((R)-3-amino-1-(4-((6-amino-9H-purin-9-yl)methyl)-6-(3,4-difluorophenyl)pyridin-3-yl)piperidin-3-yl)-2-methylbutan-1-one] were, in that order, 10 to 1000 nM, 60 nM and 252 nM.
Consider `Nc1ncnc2c1ncn2Cc1cc(-c2ccc(F)c(F)c2)ncc1N1CCC[C@](N)(c2cc(O)cc(F)n2)C1` [Example 206, (R)-2-(3-amino-1-(4-((6-amino-9H-purin-9-yl)methyl)-6-(3,4-difluorophenyl)pyridin-3-yl)piperidin-3-yl)-6-fluoropyridin-4-ol], for which the IC50 at NSD2 [1-1365] was 1 to 10 nM; in assay [1] it was 117 nM; in assay [2] (KMS11-Par line, 72 hours) it was 1160 nM.
Regarding `Nc1ncnc2c1ncn2Cc1cc(-c2ccc(Cl)c(F)c2)ncc1N1CCC[C@](N)([C@H](O)C(F)F)C1` [Example 152, (S)-1-((R)-3-amino-1-(4-((6-amino-9H-purin-9-yl)methyl)-6-(4-chloro-3-fluorophenyl)pyridin-3-yl)piperidin-3-yl)-2,2-difluoroethan-1-ol], the values for the IC50 (on NSD2 [1-1365] (setting [3]); in assay [1]; in assay [2] (setting [4])) were 10 to 1000 nM, 68.7 nM and 1770 nM, respectively.
`COc1ccc(-c2cc(Cn3cnc4c(N)ncnc43)c(N3CCC[C@](N)([C@H](C)O)C3)cn2)cc1F` [Example 92, (S)-1-((R)-3-amino-1-(4-((6-amino-9H-purin-9-yl)methyl)-6-(3-fluoro-4-methoxyphenyl)pyridin-3-yl)piperidin-3-yl)ethan-1-ol]: the IC50 is 1 to 10 nM on NSD2 [1-1365] (setting [3]), 2110 nM in assay [1] and 4890 nM in assay [2] (setting [4]).
`CCc1nccc([C@@]2(N)CCCN(c3cnc(-c4ccc(F)c(F)c4)cc3Cn3cnc4c(N)ncnc43)C2)n1` [Example 251, (R)-9-((5-(3-amino-3-(2-ethylpyrimidin-4-yl)piperidin-1-yl)-2-(3,4-difluorophenyl)pyridin-4-yl)methyl)-9H-purin-6-amine]: the IC50 on NSD2 [1-1365] was 10 to 1000 nM; in assay [1], 440 nM; in assay [2] (KMS11-Par line, 72 hours), 1520 nM.
Consider `Nc1ncnc2c1ncn2Cc1cc(-c2ccc(F)c(F)c2)ncc1N1CCCC(N)(C(=O)NC2CCOC2)C1` (stereo not drawn) [Example 85, 3-amino-1-(4-((6-amino-9H-purin-9-yl)methyl)-6-(3,4-difluorophenyl)pyridin-3-yl)-N-(tetrahydrofuran-3-yl)piperidine-3-carboxamide], for which the IC50 on NSD2 [1-1365] (setting [3]) is 10 to 1000 nM; in assay [1], 2080 nM; in assay [2] (setting [4]), 6490 nM.

The values above are taken from patent publication US11420970B1 (NOVARTIS AG, priority 2019, dated 2022).
